Laboratory results taken from patent EP2277860B1, “Compositions comprising sulfonated estolides and alkyl ester sulfonates, methods of making them, and compositions and processes employing them” (STEPAN COMPANY, priority 2009, dated 2011).

Experiment: CMC via the Wilhelmy plate technique
Assay type: physicochemical
Description: Not to be bound by theory, surfactants with low CMC values tend to be more mild to enzymes based on low monomer concentrations in solution which interfere with enzyme stability. The measured CMC, via the Wilhelmy plate technique, of SHP is 30 mg/L while that of the sodium salt of AES is 80 mg/L and NaLAS is 900 mg/L.

linear alkylbenzene sulfonic acid, sodium salt [NaLAS]
CMC: 900 mg/L
